The target in assay [1] is T1, human sphingosine-1-phosphate receptor 1 (S1P1) (Homo sapiens, UniProt P21453). In words: Inhibition of cAMP production (HTRF cAMP HiRange), S1P1 CHO-K1 cells. Format: cell-based. The note with it: for Emax: CHO-K1, efficacy normalized to maximum efficacy of fingolimod, read-out: hS1P1 CAMP SPAN; for EC50: read-out: hS1P1 CAMP pEC50 (converted). In short, it runs like this: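 CHO-K1 cells co-expressing human S1P1 (C-terminal ProLink tag) and EA-β-arrestin2, plated overnight; after 30 min compound incubation at 37 °C, intracellular cAMP measured by HTRF TR-FRET following 1 h at room temperature. Values normalized to fingolimod.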
In general terms: Cyclic AMP is a second messenger, typically raised through Gs and lowered through Gi signalling.
Target sequence in this assay (P21453 whole entry): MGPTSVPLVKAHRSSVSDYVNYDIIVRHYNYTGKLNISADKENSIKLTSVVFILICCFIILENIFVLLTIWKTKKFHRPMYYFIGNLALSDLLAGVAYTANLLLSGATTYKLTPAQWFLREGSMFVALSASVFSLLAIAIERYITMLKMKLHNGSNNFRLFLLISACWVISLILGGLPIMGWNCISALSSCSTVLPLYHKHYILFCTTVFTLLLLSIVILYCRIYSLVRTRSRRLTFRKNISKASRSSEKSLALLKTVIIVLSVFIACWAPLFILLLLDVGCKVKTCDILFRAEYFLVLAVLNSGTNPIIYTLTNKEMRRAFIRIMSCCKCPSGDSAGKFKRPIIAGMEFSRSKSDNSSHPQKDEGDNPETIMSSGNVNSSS

Assay [2] addresses T1, human sphingosine-1-phosphate receptor 1 (S1P1). In words: β-Arrestin2 recruitment assay (PathHunter), S1P1 CHO-K1 cells. The format is cell-based. The note with it: for Emax: efficacy normalized to maximum efficacy of fingolimod, read-out: hS1P1 B-arrestin2 SPAN; for EC50: β-arrestin2 recruitment, read-out: hS1P1 B-arrestin2 pEC50 (converted). An outline of the steps: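 CHO-K1 cells co-expressing EA-β-arrestin2 and ProLink-tagged human S1P1 plated overnight, then stimulated 60 min at 37 °C. Enzyme-fragment complementation (β-galactosidase) detected after 1 h at room temperature by luminescence; values normalized to fingolimod.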
Target sequence in this assay (P21453 whole entry): as above
Target sequence in this assay (P32121 whole entry partner): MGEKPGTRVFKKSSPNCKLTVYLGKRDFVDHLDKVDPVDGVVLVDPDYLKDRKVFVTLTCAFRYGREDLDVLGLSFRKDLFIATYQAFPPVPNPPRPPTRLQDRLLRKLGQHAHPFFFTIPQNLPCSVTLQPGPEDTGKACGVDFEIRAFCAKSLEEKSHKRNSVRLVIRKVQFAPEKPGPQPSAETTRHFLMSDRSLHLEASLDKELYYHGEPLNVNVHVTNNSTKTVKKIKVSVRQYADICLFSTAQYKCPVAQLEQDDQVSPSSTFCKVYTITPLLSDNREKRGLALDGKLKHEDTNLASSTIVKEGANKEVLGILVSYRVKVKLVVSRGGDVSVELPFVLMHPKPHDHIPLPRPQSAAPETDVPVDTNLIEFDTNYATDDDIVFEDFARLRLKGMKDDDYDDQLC

[3] abbreviates: inhibition of cAMP production, S1P1.
[4] abbreviates: inhibition of cAMP production, potency.
Setting [5] is: CHO-K1, β-arrestin2 recruitment.

Bounds are passed on as bounds.

`CC(C)Nc1ccc(-c2ncc(-c3ccc4[nH]c(=O)[nH]c4c3)cn2)cc1C#N` [Compound 628, 2-(isopropylamino)-5-(5-(2-oxo-2,3-dihydro-1H-benzo[d]imidazol-5-yl)pyrimidin-2-yl)benzonitrile]: the Emax in assay [1] is above 75%; in assay [2] (CHO-K1) it was below 75%. Moreover, the values for the EC50 in assay [1] (setting [3]) and in assay [2] (S1P1) were below 316 nM and below 10000 nM, respectively.

Take `CC(C)n1nnc2cc(-c3nc(-c4cccnc4)no3)ccc21` [Compound 165, 1-(propan-2-yl)-5-[3-(pyridin-3-yl)-1,2,4-oxadiazol-5-yl]-1H-1,2,3-benzotriazole]: the Emax in assay [1] (inhibition of cAMP production) and in assay [2] (setting [5]) was above 75% in each case. The EC50 is above 316 nM in assay [1] (setting [4]) and above 10000 nM in assay [2] (potency).

As for `CC(C)n1nnc2cc(-c3nc(-c4ccc(Oc5ccccc5)cc4)no3)ccc21` [Compound 15, 5-[3-(4-phenoxyphenyl)-1,2,4-oxadiazol-5-yl]-1-(propan-2-yl)-1H-1,2,3-benzotriazole], the results for the Emax in assay [1] (inhibition of cAMP production) and in assay [2] (setting [5]) were above 75% and below 75%, respectively. The EC50 in assay [1] (setting [4]) is above 316 nM; in assay [2] (potency), above 10000 nM.

For `CC(C)n1nnc2cc(-c3noc(C45CC6CC(CC(C6)C4)C5)n3)ccc21` [Compound 200, 5-[5-(adamantan-1-yl)-1,2,4-oxadiazol-3-yl]-1-(propan-2-yl)-1H-1,2,3-benzotriazole], the Emax in assay [1] (inhibition of cAMP production) and in assay [2] (setting [5]) was below 75% throughout. For the same compound, the values for the EC50 in assay [1] (setting [4]) and in assay [2] (potency) were above 316 nM and above 10000 nM, respectively.

As to `COc1ccccc1-c1nnc(-c2ccc3c(c2)nnn3C(C)C)o1` [Compound 35, 5-[5-(2-methoxyphenyl)-1,3,4-oxadiazol-2-yl]-1-(propan-2-yl)-1H-1,2,3-benzotriazole], the Emax in assay [1] (inhibition of cAMP production) and in assay [2] (setting [5]) was above 75% in each case. The EC50 in assay [1] (setting [4]) was above 316 nM; in assay [2] (potency), above 10000 nM.

On to `CCC1(CC)CC(=O)c2cc(-c3nc(-c4cncc(OC)c4)no3)ccc2O1` [Compound 311, 2,2-diethyl-6-(3-(5-methoxypyridin-3-yl)-1,2,4-oxadiazol-5-yl)chroman-4-one], for which the Emax in assay [1] (inhibition of cAMP production) and in assay [2] (setting [5]) was above 75% throughout. The EC50 is above 316 nM in assay [1] (setting [4]) and above 10000 nM in assay [2] (potency).

`CC(C)Cn1nnc2cc(-c3nc4cccc(Br)c4o3)ccc21` [Compound 454, 7-bromo-2-(1-isobutyl-1H-benzo[d][1,2,3]triazol-5-yl)benzo[d]oxazole]: the Emax in assay [1] and in assay [2] (CHO-K1) was above 75% in each case. Further, in assay [1] (setting [3]), the EC50 is below 316 nM.

`CC(C)n1nnc2cc(-c3nc(-c4ccccc4Br)no3)cnc21` [Compound 413, 3-(2-bromophenyl)-5-[3-(propan-2-yl)-3H-[1,2,3]triazolo[4,5-b]pyridin-6-yl]-1,2,4-oxadiazole]: the Emax in assay [1] is below 75%; in assay [2] (CHO-K1), above 75%. Besides, the EC50 is below 316 nM in assay [1] (setting [3]) and below 10000 nM in assay [2] (S1P1).

As for `O=C1CC2(CCCC2)Oc2ccc(-c3nc(-c4cccnc4)no3)cc21` [Compound 298, 6-[3-(pyridin-3-yl)-1,2,4-oxadiazol-5-yl]-3,4-dihydrospiro[1-benzopyran-2,1′-cyclopentane]-4-one], the Emax in assay [1] (inhibition of cAMP production) is above 75%; in assay [2] (setting [5]) it was below 75%. In addition, the EC50 is above 316 nM in assay [1] (setting [4]) and below 10000 nM in assay [2] (potency).

For `Cc1ccccc1-c1nc(-c2ccc3c(c2)nnn3C(C)(C)CO)no1` [Compound 609, 2-methyl-2-(5-(5-(o-tolyl)-1,2,4-oxadiazol-3-yl)-1H-benzo[d] [1,2,3]triazol-1-yl)propan-1-ol], the Emax in assay [1] and in assay [2] (CHO-K1) was below 75% in each case. In addition, the EC50 in assay [1] (setting [3]) is below 316 nM; in assay [2] (S1P1), above 10000 nM.

`CCC1(CC)CC(=O)c2cc(-c3nc(-c4ccc5c(c4)nnn5C(C)C)ns3)ccc2O1` [Compound 29, 2,2-diethyl-6-(3-(1-isopropyl-1H-benzo[d][1,2,3]triazol-5-yl)-1,2,4-thiadiazol-5-yl)chroman-4-one]: the Emax in assay [1] (inhibition of cAMP production) and in assay [2] (setting [5]) was below 75% in each case. For the same compound, the EC50 is above 316 nM in assay [1] (setting [4]) and above 10000 nM in assay [2] (potency).

In the case of `CC(C)n1nnc2cc(-c3noc(-c4cccc5c4CCC5=O)n3)ccc21` [Compound 608, 4-{3-[1-(propan-2-yl)-1H-1,2,3-benzo-triazol-5-yl]-1,2,4-oxadiazol-5-yl}-2,3-dihydro-1H-inden-1-one], the Emax in assay [1] and in assay [2] (CHO-K1) was above 75% throughout. Moreover, the figures for the EC50 in assay [1] (setting [3]) and in assay [2] (S1P1) were below 316 nM and below 10000 nM, respectively.

As for `CCC1(CC)CC(=O)c2cc(-c3nc(-c4cccnc4C(F)(F)F)no3)ccc2O1` [Compound 562, 2,2-diethyl-6-(3-(2-(trifluoromethyl)pyridin-3-yl)-1,2,4-oxadiazol-5-yl)chroman-4-one], the Emax in assay [1] and in assay [2] (CHO-K1) was above 75% each time. Also, the figures for the EC50 in assay [1] (setting [3]) and in assay [2] (S1P1) were below 316 nM and below 10000 nM, respectively.

Turning to `Cn1cnc2cc(-c3nnc(-c4ccc(NCC(F)F)c(C#N)c4)o3)ccc21` [Compound 573, 2-[(2,2-difluoro-ethyl)amino]-5-[5-(1-methyl-1H-1,3-benzodiazol-5-yl)-1,3,4-oxadiazol-2-yl]benzonitrile], the Emax in assay [1] and in assay [2] (CHO-K1) was below 75% each time. Moreover, the EC50 is above 316 nM in assay [1] (setting [3]) and above 10000 nM in assay [2] (S1P1).

For `Cc1ccccc1-c1csc(-c2ccc3c(ccn3C(C)C)n2)n1` [Compound 409, 2-(1-isopropyl-pyrrolo [3,2-b]pyridin-5-yl)-4-(o-tolyl)thiazole], the Emax in assay [1] was above 75%; in assay [2] (CHO-K1), below 75%. In addition, the EC50 in assay [1] (setting [3]) was above 316 nM; in assay [2] (S1P1), above 10000 nM.

For the compound `CCC1(CC)CC(=O)c2cc(-c3ncc(-c4ccnc(O)c4)cn3)ccc2O1` [Compound 552, 2,2-diethyl-6-(5-(2-hydroxypyridin-4-yl)pyrimidin-2-yl)chroman-4-one], the Emax in assay [1] and in assay [2] (CHO-K1) was below 75% in each case. Also, the EC50 is above 316 nM in assay [1] (setting [3]) and above 10000 nM in assay [2] (S1P1).

As for `CC(C)n1nnc2cc(-c3cc(-c4ccccc4)n(C)c3)ccc21` [Compound 544, 5-(1-methyl-5-phenyl-1H-pyrrol-3-yl)-1-(propan-2-yl)-1H-1,2,3-benzotriazole], the Emax in assay [1] and in assay [2] (CHO-K1) was below 75% throughout. Further, the figures for the EC50 in assay [1] (setting [3]) and in assay [2] (S1P1) were above 316 nM and below 10000 nM, respectively.

Turning to `CC(C)n1nnc2cc(-c3noc(-c4cccc(F)c4)n3)ccc21` [Compound 64, 5-(3-fluorophenyl)-3-(1-isopropyl-benzotriazol-5-yl)-1,2,4-oxadiazole], the Emax in assay [1] (inhibition of cAMP production) and in assay [2] (setting [5]) was above 75% each time. Besides, the EC50 was below 316 nM in assay [1] (setting [4]) and above 10000 nM in assay [2] (potency).

In the case of `Cc1cc(-c2nc(-c3ccc4c(c3)nnn4C(C)C)no2)cnc1C` [Compound 201, 5-(5,6-dimethyl-pyridin-3-yl)-3-(1-isopropyl-1H-benzo[d][1,2,3]triazol-5-yl)-1,2,4-oxadiazole], the results for the Emax in assay [1] (inhibition of cAMP production) and in assay [2] (setting [5]) were below 75% and above 75%, respectively. Besides, the values for the EC50 in assay [1] (setting [4]) and in assay [2] (potency) were above 316 nM and above 10000 nM, respectively.

Consider `CC(C)n1ccc2cc(-c3noc(-c4ccccc4F)n3)ccc21` [Compound 387, 5-(2-fluorophenyl)-3-(1-isopropyl-1H-indol-5-yl)-1,2,4-oxadiazole], for which the Emax in assay [1] and in assay [2] (CHO-K1) was above 75% each time. Further, the EC50 is above 316 nM in assay [1] (setting [3]) and below 10000 nM in assay [2] (S1P1).

Regarding `CCC1(CC)CC(=O)c2cc(-c3nc(-c4ccc5nonc5c4)no3)ccc2O1` [Compound 500, 6-[3-(2,1,3-benzoxadiazol-5-yl)-1,2,4-oxadiazol-5-yl]-2,2-diethyl-3,4-dihydro-2H-1-benzopyran-4-one], the Emax in assay [1] and in assay [2] (CHO-K1) was below 75% throughout. The EC50 in assay [1] (setting [3]) was above 316 nM; in assay [2] (S1P1), above 10000 nM.

Regarding `Cc1cncc(-c2nc(-c3ccc4c(c3)nnn4C(C)C)no2)c1` [Compound 159, 3-(1-isopropyl-1H-benzo[d][1,2,3]triazol-5-yl)-5-(5-methylpyridin-3-yl)-1,2,4-oxadiazole], the Emax in assay [1] (inhibition of cAMP production) and in assay [2] (setting [5]) was below 75% in each case. The EC50 in assay [1] (setting [4]) is above 316 nM; in assay [2] (potency) it was above 10000 nM.

As to `CCC1(CC)CC(=O)c2cc(-c3nc(-c4ccnc(C(=O)NC)c4)no3)ccc2O1` [Compound 592, 4-(5-(2,2-diethyl-4-oxochroman-6-yl)-1,2,4-oxadiazol-3-yl)-N-methylpicolinamide], the Emax in assay [1] was below 75%; in assay [2] (CHO-K1), above 75%. The EC50 in assay [1] (setting [3]) was above 316 nM; in assay [2] (S1P1), above 10000 nM.

On to `CCC1(CC)CC(=O)c2cc(-c3nc(-c4ccc5c(c4)CCC(=O)N5)no3)ccc2O1` [Compound 415, 6-(5-(2,2-diethyl-4-oxochroman-6-yl)-1,2,4-oxadiazol-3-yl)-3,4-dihydroquinolin-2(1H)-one], for which the Emax in assay [1] is below 75%; in assay [2] (CHO-K1), above 75%. Moreover, the EC50 is below 316 nM in assay [1] (setting [3]) and above 10000 nM in assay [2] (S1P1).

The values above are taken from patent US20230114241A1, “METHODS OF TREATING EPILEPSY USING THE SAME” (Trevena, Inc., priority 2019, published 2023).
